{"source": "patent US11052118B2", "about": "“Enhanced stem cell composition” (Fate Therapeutics, Inc., priority 2011, dated 2021)", "key": {"[1]": {"test_system": "CXCR4 mRNA in human umbilical cord blood derived CD34+ cells", "assay": "CXCR4 qPCR using the Fluidigm platform", "assay_type": "cell-based", "settings": "10 μM single agent in SFEM, 4 h, 37° C., compared to DMSO treated cells", "protocol": "Real-time PCR transcript quantitation of gene expression from ex vivo treated human umbilical cord blood derived CD34^+ cells (Stem Cell Technologies, Vancouver, BC, Canada) was performed using the BioMark Dynamic Array microfluidics system (Fluidigm Corporation, South San Francisco, Calif., USA).\nCD34^+ cells derived from cord blood or mobilized peripheral blood were treated in Serum-Free Expansion Medium (SFEM; e.g., StemSpan® from StemCell Technologies, Inc.) for four hours at 37° C., 5% CO2 with 10 uM prostaglandin pathway agonist alone or in combination with 10 uM of a glucocorticoid. Prostaglandin pathway agonists included 16,16-dimethyl PGE2 (dmPGE2), 20-ethyl PGE2 (ePGE2), 15(S)-15-methyl PGE2 (mPGE2), and PGE2. Glucocorticoids included hydrocortisone, dexamethasone, medrysone, alclometasone, or triamcinalone. After treatment, cells were washed with SFEM and centrifuged at 300 g for 10 minutes.\nTotal RNA was isolated then isolated from treated cells using Pico Pure RNA Isolation Kit (Molecular Devices, Sunnyvale, Calif., USA). […]\nResults were analyzed using BioMark Real-Time PCR Analysis software. Average Cts were calculated from the sample replicates and delta-delta Cts (ΔΔCt) were calculated using the mean of 3 reference genes (GAPDH, HPRT1, QARS) against a vehicle only sample. […]"}, "[2]": {"test_system": "CXCR4 mRNA in cord blood derived CD34+ cells", "assay": "CXCR4 qPCR using the Applied Biosystems StepOnePlus, cord blood CD34+ cells", "assay_type": "cell-based, human", "protocol": "(§1) Real-time PCR transcript quantitation from ex vivo treated cord CD34^+ cells (Stem Cell Technologies, Vancouver, BC, Canada) and mobilized peripheral blood CD34^+ cells (All Cells, LLC, Emoryville, Calif., USA) was performed using the Applied Biosystems StepOne Plus system (Life Technologies Corporation, Carlsbad, Calif., USA) (see FIG. 3). […] After treatment, cells were washed with SFEM and centrifuged at 300 g for 10 minutes.\n(§2) Total RNA was then isolated from treated cells using Pico Pure RNA Isolation Kit (Molecular Devices, Sunnyvale, Calif., USA). Complimentary DNA (cDNA) was reverse transcribed from 50 ng of isolated total RNA using the High-Capacity cDNA Reverse Transcription Kit (Life Technologies).\n(§3) Real-Time PCR analysis was run on the cDNA samples in duplicate. The reaction mix contained 1 μL Gene Specific Taqman Assay (20λ) and 10 μL Gene Expression Master Mix (Life Technologies) with the remaining volume of 9 μL contained 10 ng cDNA and sterile diH2O.\n(§4) CXCR4 results (assay from Table 1) were analyzed using Applied Biosystems StepOne Software v2.1 Analysis software. Average Cts were calculated from the sample replicates and delta-delta Cts (ΔΔCt) were calculated using GAPDH results (assay from Table 1) as a reference gene against a vehicle only sample. […] Error bars depict +/− the Standard Deviation (SD) of the replicate measurements (See FIGS. 1-3, 5, and 6)."}, "[3]": {"test_system": "CXCR4 mRNA in mobilized peripheral blood CD34+ cells", "assay": "CXCR4 qPCR using the Applied Biosystems StepOnePlus, mobilized peripheral blood CD34+ cells", "assay_type": "cell-based, human", "protocol": "as §1, §2, §3, §4"}, "[4]": {"test_system": "CXCR4 surface protein on CD34+ cells from human bone marrow", "assay": "CXCR4 surface protein expression by flow cytometry, bone marrow CD34+ cells", "assay_type": "cell-based", "settings": "BM CD34+ cells, 10 μM each agent, 4 hours at 37° C. in SFEM, then 2 hours in SFEM"}, "[5]": {"test_system": "CD34+ cells migrating towards SDF1", "assay": "SDF-1 transwell migration assay", "assay_type": "cell-based, human", "settings": "cells treated 4 hours at 37° C. with 10 μM, 50 ng/mL SDF1 in lower chamber, 2.5 hours; listed as dmPGE2", "protocol": "Transwell migration assays were performed using 96-well chemotaxis chambers, […] pore size polycarbonate membrane (Corning Inc., Corning, N.Y.) in accordance with manufacturer's instructions. Briefly, CD34^+ cells were then treated for 4 hours at 37° C. with 16,16-dimethyl PGE2 (dmPGE2), dmPGE2 and glucocorticoid, or DMSO control at a concentration of 10 μM in StemSpan® media (Stem Cell Technology, Vancouver, Canada). The cells were then washed by centrifugation (300×g for 10 minutes) and resuspended in transwell assay buffer (Phenol Red Free RPMI media (Mediatech), 0.5% lipid free BSA (Sigma-Aldrich) at a concentration of 40,000-60,000 cells/75 μl.\nTo test the duration of the treatment effects, one portion of treated cells was washed by centrifugation (300×g for 10 minutes) and resuspended in StemSpan® media for 4 hours at 37° C. without dmPGE2, glucocorticoids, or DMSO and then washed again by centrifugation (300×g for 10 minutes) and resuspended in transwell assay buffer (Phenol Red Free RPMI media (Mediatech), 0.5% lipid free BSA (Sigma-Aldrich) at a concentration of 40,000-60,000 cells/75 μl.\nSeventy-five μl of cell suspension was added to the upper chamber of the plate, while 235 μl of transwell assay media containing 0 or 50 ng/ml SDF1α (R&D system, Minneapolis, Minn.) was added to the bottom well. […]"}}, "data": [{"smiles": "CCCCC(C)(C)[C@H](O)/C=C/[C@H]1[C@H](O)CC(=O)[C@@H]1C/C=C\\CCCC(=O)O", "note": "[16,16-dimethyl PGE2]", "values": [{"measurement": "increase in CXCR4 mRNA expression", "setting": "[1]", "value": 22, "unit": "fold"}, {"measurement": "CXCR4 RNA expression", "setting": "[2]; cord blood CD34+ cells, 10 μM, 2 and 4 hours at 37° C. in SFEM, compared to DMSO treated cells", "value": "increase"}, {"measurement": "increase in CXCR4 mRNA expression", "setting": "[2]; cord blood derived CD34+ cells, 4 hour treatment in SFEM, 10 μM each agent, against vehicle only sample", "value": 22, "unit": "fold"}, {"measurement": "increase in CXCR4 mRNA expression", "setting": "[3]; CD34+ cells from mobilized peripheral blood, 4 hour treatment in SFEM, 10 μM each agent, against vehicle only sample", "value": 27, "unit": "fold"}, {"measurement": "CXCR4 RNA expression", "setting": "[3]; mPB CD34+ cells, 10 μM, 2 and 4 hours at 37° C. in SFEM, compared to DMSO treated cells", "value": "increase"}, {"measurement": "increase in the level of CXCR4 protein expression", "setting": "[4]", "value": 12, "unit": "fold"}, {"measurement": "SDF1-driven cell migration (% of cells added), words", "setting": "[5]", "value": "increased SDF1-driven cell migration compared to the DMSO control"}]}]}
